Data set [1] has as its system CD38 hydrolase activity. Particulars: cited from earlier work.
The target in data set [2] is T1, human recombinant CD38 (hydrolase activity) (Homo sapiens, UniProt P28907). Nature of the data set: Human recombinant CD38 fluorometric enzyme assay, hydrolase activity (εNAD+). It is filed as biochemical. The settings on record: for remaining activity at 50 µM: 50.0 μM compound, 10 nM recombinant CD38, 10 μM εNAD+; for IC50: recombinant CD38 enzyme assay; for decrease in potency relative to hit compound 1: CD38 hydrolase IC50 versus 1. The procedure:
Compounds were screened for inhibition against CD38 hydrolase activity in a human recombinant CD38 fluorometric assay. Recombinant CD38 was diluted in assay diluent (PBS, 0.02% Tween-20, pH 7.4) to a 4× working concentration (40 nM). Test compounds were diluted in assay diluent to a working concentration of 200 μM. Working CD38 (25.0 μL) and the 4× test compound (25.0 μL) were pipetted into a black 96-well microplate and incubated for 15 minutes at 25 °C on an orbital shaker. Following incubation, 20 μM εNAD^+ (50 μL) was pipetted into each well and fluorescence intensity was measured kinetically for 10 minutes (ex/em: 300/410 nm) using a Molecular Devices SpectraMax iD3 plate reader. Final concentrations of all components were: 10 nM recombinant CD38, 50 μM test compound (50 nM for control compound 3), and 10 μM εNAD^+. Means for data points at 1 minute 49 seconds were normalized to vehicle treated control. Values were expressed as percent remaining activity of CD38. Each assay was conducted in technical and experimental triplicate and compared to literature reported values of 14.

A further data set relates to SHSY5Y-GFP cells. Nature of the data set: Proliferative effect on SHSY5Y-GFP cells alone, 24 h imaging. It is filed as cell-based, human. Particulars: 1.0 μM, at both 20 000 and 30 000 cells per well. The procedure: SHSY5Y-GFP cells were plated at 20 000, 30 000, 40 000, and 50 000 cells per well with 6 test wells each. Cells were incubated for 24 hours and imaged with a BioTek Cytation 5 at 20× with 4 fields per well using brightfield and GFP channels. The data is presented as the sum of SHSY5Y-GFP cells in imaged fields as a function of cells per well (Fig. 9A). Optimal plating density was determined to be between 20 000 and 30 000 cells per well. Additionally, we wanted to rule out proliferative effects in SHSY5Y-GFP cells treated with 2. Cells were plated at 20 000 or 30 000 cells per well and treated with varying concentrations of 2 or vehicle control for 24 hours and imaged as described above. Data was then expressed as the sum of SHSY5Y-GFP cells in imaged fields as a function of the concentration of 2 (Fig. 9B).

Another data set deals with NAD+ levels. The arrangement: method as in PMID 35497564. Particulars: cited from earlier work.
Data set [3] has as its system donor 3 PB NK cells (IFNγ secretion). Nature of the data set: 20 day treatment of PB NK cells, IFNγ in supernatant (Lumit IFNγ assay). The settings on record: donor 3, fresh medium every 3 days, day 20. The class given is cell-based, human. The method, then: The TME has the ability to down regulate NK cell activation and function, therefore it is important to discern whether inhibition of CD38 hydrolase activity over an extended period will improve NK cell activation and support a persistent response.[62] To address this question, donor 3 PB NK cells were plated on a 12-well plate at a confluency of 1 × 10^6 cells mL^−1 in Immunocult-XF T cell expansion medium supplemented with 500 IU mL^−1 IL-2, 10 ng mL^−1 IL-15, and 0.2 μL mL^−1 CD2/CD3/CD28 T cell activator. Cells were treated with vehicle control, 2, or 14. Cells were treated with fresh medium every 3 days over the course of 20 days. Cells from each treatment group were counted on the 20th day of treatment and viability determined using trypan blue. NK cells treated with 2 or 14 were normalized to vehicle control with the percent change in viable cells presented as a function of the treatment condition (Fig. 8A). We observed 43 ± 6% more viable cells in the group treated with 14 and 36 ± 13% more viable cells in the group treated with 2, relative to vehicle control. Additionally, on the 20th day of treatment the cell supernatant was collected and analyzed for IFNγ using the Promega Lumit IFNγ assay. Treatment groups were normalized to vehicle control and the data presented as IFNγ % difference as a function of treatment (Fig. 8B). […]

In data set [4] the target is T1, human recombinant CD38 (hydrolase activity). Nature of the data set: Human recombinant CD38 fluorometric enzyme assay, hydrolase activity (εNAD+). The settings on record: 25 μM compound. It is filed as biochemical.
Another data set has as its system SHSY5Y-GFP NB cells. Nature of the data set: SHSY5Y-GFP and PB NK cell co-culture assay with ch14.18-IL2. The class given is cell-based, human. The method, then:
Following optimization, SHSY5Y-GFP cells were plated at 25 000 cells per well and incubated for 24 hours. PB NK cells stained with cell tracker deep red were added to SHSY5Y-GFP cells with 50 ng mL^−1 ch14.18-IL2 and treated with 2, 14 or vehicle control. Cells were incubated for 90 minutes at 37 °C and imaged using a BioTek Cytation 5 at 20× (Fig. 11A–C). Live SHSY5Y-GFP cells were quantitated by measuring the integrated GFP fluorescence intensity. After only 90 minutes treatment with a 1.0 μM concentration of 2 and 50 ng mL^−1 ch14.18-IL2a caused a 14 ± 3% decrease in SHSY5Y-GFP fluorescent area (Fig. 11B) relative to vehicle-treated control (Fig. 11A). […] Fig. 12 is a close-up view from a representative well showing the effects of 1 μM 2 combined with 50 ng mL^−1 ch14.18-IL2.
SHSY5Y-GFP NB cells were plated at a concentration of 25 000 cells per well (100 μL) for 12 hours on a black, clear-bottom, 96-well microplate. PB NK cells were washed with PBS and resuspended in 5 μM cell tracker deep red in RPMI 1640 without FBS for 30 minutes at 37 °C, 5% CO2. Following incubation, cells were washed with PBS and resuspended in RPMI 1640 supplemented with 10% FBS. Compounds were dissolved in DMSO and diluted to a 4 μM working solution with cell culture medium. […] The sum integration of GFP area was measured and normalized to vehicle-treated control. […]

Data set [5] deals with Human PB NK cells (IFNγ secretion). The experiment in a line: Quantitation of IFNγ secreted by PB NK cells, 24 h (Lumit IFNγ assay). The class given is cell-based. The procedure:
In light of the substantial change in viability/proliferation of PB NK cells following treatment with 2, changes in the ability of treated NK cells to secrete IFNγ were measured.[60,61] Human PB NK cells (purity > 90%) were added to a 96-well plate at a confluency of 49 000 cells per well in Immunocult-XF T cell expansion medium supplemented with 500 IU mL^−1 IL-2, 10 ng mL^−1 IL-15, and 0.2 μL mL^−1 CD2/CD3/CD28 T cell activator. These cells were exposed to varying concentrations of 2 or 14 for 24 hours, followed by quantification of IFNγ using a Lumit IFNγ assay kit (W6040, Promega, Madison, WI). Treatment groups were normalized to vehicle-treated control and data was expressed as percent change in IFNγ. As often happens, we encountered a wide variability in the response of human primary cells from different donors. […] Despite the variability in the magnitude of the IFNγ response, the trend in all 3 donors was a dose-dependent increase for both 2 and 14. Decreases in IFNγ expression at higher doses of both compounds in donors 2 and 3 may be due to modest cytotoxicity.
Human PB NK cells were plated at 49 000 cells per well (60 μL per well) on a white, clear-bottom, 96-well microplate in Immunocult-XF T cell expansion medium supplemented with 1× penicillin/streptomycin, 500 IU mL^−1 IL-2, 10 ng mL^−1 IL-15, 0.2 μL mL^−1 CD2/CD3/CD28 T cell activator. Test compounds were dissolved in DMSO and diluted to a 4× working solution. Working test compound was added to the cells (20 μL) and the cells were incubated at 37 °C, 5% CO2 for 24 hours. The last 3 columns on the microplate were left empty for IFNγ standards. The provided human IFNγ standard (10 μg mL^−1) was diluted to 10 000 pg mL^−1 using cell culture medium. The 10 000 pg mL^−1 solution was serially diluted 3.33-fold for a total of 7 standard concentrations. The IFNγ standards were plated (80 μL) in the empty columns (in triplicate) following incubation. A 5× solution of both antibodies was prepared by combining the Lumit Anti-hIFN-γ-mAb-LgBiT (24 μL) and the Lumit Anti-hIFN-γ-mAb-SmBiT (24 μL) with cell culture medium (2.4 mL). The 5× antibody solution (20 μL) was pipetted into each well. The microplate was briefly mixed for 15 seconds on a shaker at 250 rpm and incubated for 90 minutes at 37 °C, 5% CO2. Following incubation, the microplate was allowed to rest at 25 °C for 15 minutes. The Lumit detection substrate (160 μL) was diluted with Lumit detection buffer B (3040 μL) and pipetted into each well (25 μL). The microplate was allowed to incubate for 5 minutes at 25 °C and then the luminescence was measured using a Molecular Devices SpectraMax iD3 plate reader. A standard curve with averaged RLU measurements of the IFNγ concentrations was determined with GraphPad Prism using 4-parameter logistic curve fitting. […]

For data set [6], the system named is CD38 hydrolase activity. The arrangement: method as in PMID 26864107. Particulars: cited from earlier work.
In the next data set the test system is CD38 cyclase activity. Details: method as in PMID 26864107. Particulars: cited from earlier work.

The values below come from publication PMC9945084, “Stimulation of natural killer cells with small molecule inhibitors of CD38 for the treatment of neuroblastoma” (Chemical Science, 2023).

Several values for one entry are separate records, joined by “and”; a condition that tells them apart may be missing. Identical values can stand only once. Bounds are passed on as bounds.

T1 sequence (P28907 whole entry): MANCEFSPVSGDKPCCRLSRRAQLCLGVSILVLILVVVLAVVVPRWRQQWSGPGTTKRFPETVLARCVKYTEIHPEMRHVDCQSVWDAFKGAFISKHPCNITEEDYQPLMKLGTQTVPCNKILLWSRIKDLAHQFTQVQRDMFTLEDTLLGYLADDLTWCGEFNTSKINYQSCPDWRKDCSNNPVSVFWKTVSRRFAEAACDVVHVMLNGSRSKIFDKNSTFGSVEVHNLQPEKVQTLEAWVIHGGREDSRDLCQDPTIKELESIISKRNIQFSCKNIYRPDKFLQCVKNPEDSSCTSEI

`CC1=CC(C)(C)N=C(Nc2nc(C)c3cc(C)cc(C)c3n2)N1` [Compound 1]: the “mode of inhibition of CD38 hydrolase activity” value with CD38 hydrolase activity [1] is listed as “mixed inhibition”. In data set [2], the remaining activity at 50 µM was determined as 61.6 ± 2% and the IC50 worked out at 4.2 ± 0.5 µM.
Turning to `COc1cc(C)cc2c(C)nc(NC3=NC(C)(C)C=C(C)N3)nc12` [Compound 2, 8-Methoxy-4,6-dimethyl-N-(4,4,6-trimethyl-1,4-dihydropyrimidin-2-yl)quinazolin-2-amine], the “cell number difference between vehicle-treated and treated SHSY5Y-GFP cells” value in the data set on SHSY5Y-GFP cells is listed as < 4%. Also, the “change in NAD+ levels” value with NAD+ levels is given as “significant increases”. In [3], the “more IFNγ secreted relative to vehicle control” value is listed as 20 ± 1%. For the same compound, in data set [4], the remaining activity at 25 µM was determined as 5.6 ± 0.8%. In addition, the “decrease in SHSY5Y-GFP fluorescent area relative to vehicle-treated control” value with SHSY5Y-GFP NB cells (1.0 μM + 50 ng mL−1 ch14.18-IL2, 90 minutes, effector : target 1 : 1) was 14% and 14 ± 3%. Moreover, the “increase in IFNγ, donor 1” value in [5] (donor 1, 1.0 μM) turned out to be 759 ± 45%. The “increase in IFNγ, donor 2” value in data set [5] (donor 2, 0.111 μM) came to 100 ± 29%. For the same compound, the “increase in IFNγ, donor 3” value in data set [5] (donor 3, 0.037 μM) is 18 ± 2%. Also, the IC50 in [2] stood at 1.9 ± 0.1 µM.
Take `CC1=CC(C)(C)N=C(Nc2nc(C)c3cccc(C)c3n2)N1` [Compound 3]: in data set [2], the remaining activity at 50 µM stood at 41 ± 0.03%, the “decrease in potency relative to hit compound 1” value is listed as 2 fold and the half-maximal inhibitory concentration (IC50) came to 8.4 ± 0.7 µM.
Turning to `Cc1cc(C)c2nc(Nc3nc(C)c(C)c(O)n3)nc(C)c2c1` [Compound 4], in [2], the remaining activity at 50 µM amounted to 58.2 ± 1.4% and the half-inhibitory concentration (IC50) was 5.1 ± 0.9 µM.
For the compound `CCOc1ccc2nc(Nc3nc(=O)c(Cc4ccccc4)c(C)[nH]3)nc(C)c2c1` [Compound 5], in data set [2], the remaining activity at 50 µM is 57 ± 0.3%; the “decrease in potency relative to hit compound 1” value is listed as 2 fold; the 50% inhibitory concentration (IC50) is 8 µM and 8.3 µM.
`Cc1nc(NC2=NCCC(=O)N2)nc2ccccc12` [Compound 6]: in [2], the remaining activity at 50 µM was 66.8 ± 0.6%.
Take `Cc1nc(Nc2nc(CCC(C)C)cc(=O)[nH]2)nc2ccccc12` [Compound 7]: in data set [2], the remaining activity at 50 µM is 60.3 ± 0.7% and the half-maximal inhibitory concentration (IC50) was determined as 4 ± 0.9 µM.
For the compound `Cc1nc(NC2=NCN(CCN3CCOCC3)CN2)nc2c(C)cccc12` [Compound 9], the remaining activity at 25 µM in data set [4] came to 65.3 ± 0.6%.
Take `CC1=CC(C)(C)N=C(Nc2nc(-c3ccccc3)c3cc(C)cc(C)c3n2)N1` [Compound 11]: in [2], the remaining activity at 50 µM was determined as 49.1 ± 2.2%; the “decrease in potency relative to hit compound 1” value was 5 fold; the IC50 is 23 µM and 23.8 µM.
Regarding `CC1=NC(Nc2nc(C)c3cc(C)cc(C)c3n2)=NC(C)(C)C1` [Compound 12], in data set [2], the remaining activity at 50 µM worked out at 52 ± 9.6% and the “decrease in potency relative to hit compound 1” value was ~3 fold.
Regarding `CCc1ccc2c(C)nc(NC3=NC(C)(C)C=C(C)N3)nc2c1` [Compound 13], in [2], the remaining activity at 50 µM stood at 48.1 ± 6.8% and the IC50 worked out at 22.4 ± 1.1 µM.
`COCCO[C@H]1CC[C@H](Nc2cc(=O)n(C)c3ccc(-c4cncs4)cc23)CC1` [Compound 14, reference compound]: in the data set with NAD+ levels, the “change in NAD+ levels” value was “significant increases”. Further, in data set [3], the “more IFNγ secreted relative to vehicle control” value was 23 ± 2%. Moreover, the “mode of inhibition of CD38” value in the data set with CD38 hydrolase activity [1] is reported as “mixed inhibition”. The “difference in SHSY5Y-GFP cells versus vehicle-treated control, in words” value with SHSY5Y-GFP NB cells (1 μM + 50 ng mL−1 ch14.18-IL2, 90 minutes) is on record as “not a statistically significant difference”. The “increases in IFNγ levels, in words” value in [5] (all 3 donors) is “similaer to the effects of 2”. Further, in [2] (positive control 14, used at 50.0 nM according to b14 and b58), the remaining activity at 0.05 µM was 60.3 ± 1.8%. Further, in data set [2], the IC50 came to 0.078 ± 0.03 µM.
With daratumumab, the “effect on CD38 hydrolase activity” value with CD38 hydrolase activity [6] was “enhances CD38 hydrolase activity”. In addition, in the data set on CD38 cyclase activity, the “effect on CD38 cyclase activity” value is reported as “modest inhibitory activity”.
